Source: patent US20230096028A1, “BICYCLIC HETEROCYCLYL COMPOUNDS AND USES THEREOF” (Revolution Medicines, Inc., priority 2019, published 2023)
Where two headings read alike, the source gives them in different places.

Key:
[1] = system: PC-9 cells (EGFR Ex19Del); assay: Potency Assay: pERK (SOS1 pERK IC50 Assay, AlphaLISA SureFire Ultra p-ERK1/2); type: cell-based; details: Homo sapiens, read-out: SOS1 pERK IC50
Experimental: The purpose of this assay is to measure the ability of test compounds to inhibit SOS1 function in cells. SOS1 activates RAS proteins by catalyzing the conversion of RAS GDP to RAS GTP in response to receptor tyrosine kinase activation. […] The procedure described below measures the level of cellular pERK in response to test compounds in PC-9 cells (EGFR Ex19Del).
PC-9 cells were grown and maintained using media and procedures recommended by the ATCC. On the day prior to compound addition, cells were plated in 384-well cell culture plates (40 μL/well) and grown overnight in a 37° C., 5% CO2 incubator. Test compounds were prepared in 10, 3-fold dilutions in DMSO, with a top concentration of 10 mM. On the day of the assay, 40 nL of test compound was added to each well of cell culture plate using an Echo550 liquid handler (LabCyte). Concentrations of test compound were tested in duplicate with highest test concentration being 10 μM. After compound addition, cells were incubated for 1 hour at 37° C., 5% CO2. Following incubation, culture medium was removed and cells were washed once with phosphate buffered saline.
Cellular pERK level was determined using the AlphaLISA SureFire Ultra p-ERK1/2 Assay Kit (PerkinElmer). Cells were lysed in 25 μL lysis buffer, with shaking at 600 RPM at room temperature for 15 minutes. Lysate (10 μL) was transferred to a 384-well Opti-plate (PerkinElmer) and 5 μL acceptor mix was added. The plate was centrifuged at 1000 RPM for 1 minute, and incubated in the dark for 2 hours. Following this incubation, 5 μL of donor mix was added, the plate was sealed and centrifuged at 1000 RPM for 1 minute, and the mixture was incubated for 2 hours at room temperature. Signal was read on an Envision plate reader (PerkinElmer) using standard AlphaLISA settings. Analysis of raw data was carried out in Excel (Microsoft) and Prism (GraphPad). Signal was plotted vs. the decadal logarithm of compound concentration, and IC50 was determined by fitting a 4-parameter sigmoidal concentration response model.

[2] = target: T1, SOS1 catalytic domain (residues 564-1049) (Homo sapiens, UniProt Q07889); assay: Mode of Action Assay: inhibition of SOS1 nucleotide exchange activity (SOS1 TR-FRET IC50 Assay)
T1 sequence (Q07889 564-1049): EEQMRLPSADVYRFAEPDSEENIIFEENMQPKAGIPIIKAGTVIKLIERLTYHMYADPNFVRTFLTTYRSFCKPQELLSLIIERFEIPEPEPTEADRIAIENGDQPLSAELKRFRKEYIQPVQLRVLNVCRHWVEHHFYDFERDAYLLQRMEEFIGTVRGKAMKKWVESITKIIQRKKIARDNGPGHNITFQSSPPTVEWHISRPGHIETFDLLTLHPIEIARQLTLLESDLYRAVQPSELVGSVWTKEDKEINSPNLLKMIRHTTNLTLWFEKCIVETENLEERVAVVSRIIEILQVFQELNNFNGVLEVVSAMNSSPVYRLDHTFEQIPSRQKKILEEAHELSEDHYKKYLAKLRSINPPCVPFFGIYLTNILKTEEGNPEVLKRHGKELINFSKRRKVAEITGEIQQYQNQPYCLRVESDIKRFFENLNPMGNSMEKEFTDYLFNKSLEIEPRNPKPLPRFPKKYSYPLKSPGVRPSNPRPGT

[3] = PC-9 cells (EGFR Ex19Del), 1 hour incubation, AlphaLISA p-ERK1/2

Row | SMILES | IC50 [1, 3] [nM] | IC50 [2] [nM] | IC50 ([1]; PC-9, 1 h) [nM]
1 | CC(Nc1nc(Cl)nc2c1CN(C(=O)N1CCOCC1)C2)c1nccc(C(F)F)c1F (centres unmarked) [Example 521, 2-chloro-N-{1-[4-(difluoromethyl)-3-fluoropyridin-2-yl]ethyl}-6-(morpholine-4-carbonyl)-5H,6H,7H-pyrrolo[3,4-d]pyrimidin-4-amine] |  | > 1000 | > 1000
2 | CC(Nc1nc(Cl)nc2c1CN(C(=O)N1CCOCC1)C2)c1ccc(-c2ccccc2)s1 (centres unmarked) [Example 532, [2-chloro-4-[1-(5-phenyl-2-thienyl)ethylamino]-5,7-dihydropyrrolo[3,4-d]pyrimidin-6-yl]-morpholino-methanone] |  | > 1000 | > 1000
3 | C[C@@H](Nc1nc(Cl)nc2c1CN(C(=O)C13CCC(CC1)O3)CC2)c1cc(N)cc(C(F)(F)F)c1 [Example 218] | > 1000 | > 1000 | 
4 | C[C@@H](Nc1nc(Cl)nc2c1CN(C(=O)N1CCOCC1)C2)c1csc(C(F)F)c1F [Example 481, 2-chloro-N-[(1R)-1-[5-(difluoromethyl)-4-fluorothiophen-3-yl]ethyl]-6-(morpholine-4-carbonyl)-5H,6H,7H-pyrrolo[3,4-d]pyrimidin-4-amine] |  | > 1000 | > 1000
5 | C[C@@H](Nc1nc(Cl)nc2c1CN(S(=O)(=O)c1ccccn1)CC2)c1cc(N)cc(C(F)(F)F)c1 [Example 459] | < 1000 |  | 
6 | C[C@@H](Nc1nc(Cl)nc2c1CN(C(=O)c1cc(N3CCOCC3)nc(N3CCOCC3)n1)CC2)c1cc(N)cc(C(F)(F)F)c1 [Example 230] | > 1000 | > 1000 | 
7 | C[C@@H](Nc1nc(Cl)nc2c1CN(C(=O)N1CCNc3ccccc31)C2)c1cccc(C(F)(F)F)c1 [Example 372] | < 1000 | < 1000 | 
8 | C[C@@H](Nc1nc(Cl)nc2c1CN(C(=O)C1(CO)CC1)CC2)c1cc(N)cc(C(F)(F)F)c1 [Example 206] | > 1000 | > 1000 | 
9 | C[C@@H](Nc1nc(Cl)nc2c1CN(C1CNC1)CC2)c1cccc(C(F)(F)F)c1 [Example 177, (R)-6-(azetidin-3-yl)-2-chloro-N-(1-(3-(trifluoromethyl)phenyl)ethyl)-5,6,7,8-tetrahydropyrido[4,3-d]pyrimidin-4-amine] | > 1000 | < 1000 | 
10 | C[C@@H](Nc1nc(Cl)nc2c1CN(C(=O)C1CCN(C)CC1)C2)c1cc(N)cc(C(F)(F)F)c1 [Example 58, [4-[[(1R)-1-[3-amino-5-(trifluoromethyl)phenyl]ethyl]amino]-2-chloro-5,7-dihydropyrrolo[3,4-d]pyrimidin-6-yl]-(1-methyl-4-piperidyl)methanone] |  | < 1000 | < 1000
11 | C[C@@H](Nc1nc(Cl)nc2c1CC1(CC2)OCCO1)c1cc(N)cc(C(F)(F)F)c1 [Example 514, N-[(1R)-1-[3-amino-5-(trifluoromethyl)phenyl]ethyl]-2′-chloro-7′,8′-dihydro-5′H-spiro[1,3-dioxolane-2,6′-quinazoline]-4′-amine] |  | > 1000 | 
12 | COc1ccc(C2(C(=O)N3CCc4nc(Cl)nc(N[C@H](C)c5cc(N)cc(C(F)(F)F)c5)c4C3)COC2)cc1 [Example 192] |  | > 1000 | 
13 | C[C@@H](Nc1nc(Cl)nc2c1CN(C(=O)C1(c3ncccn3)CC1)CC2)c1cc(N)cc(C(F)(F)F)c1 [Example 191] |  | > 1000 | 
14 | C[C@@H](Nc1nc(Cl)nc2c1CN(C(=O)c1ncccc1C(F)(F)F)CC2)c1cc(N)cc(C(F)(F)F)c1 [Example 253] |  | > 1000 | 
15 | C[C@@H](Nc1nc(Cl)nc2c1CN(C(=O)c1cccc(C(F)(F)F)n1)CC2)c1cc(N)cc(C(F)(F)F)c1 [Example 251] | > 1000 |  | 
16 | C[C@@H](Nc1nc(Cl)nc2c1CN(C(=O)N1CCOc3ccncc31)C2)c1cccc(C(F)(F)F)c1 [Example 373] |  | < 1000 | 
17 | C[C@@H](Nc1nc(Cl)nc2c1CCN(CC1CCOC1)CC2)c1cc(N)cc(C(F)(F)F)c1 (stereo partly drawn) [Example 113, N-[(1R)-1-[3-amino-5-(trifluoromethyl)phenyl]ethyl]-2-chloro-7-(oxolan-3-ylmethyl)-5H,6H,7H,8H,9H-pyrimido[4,5-d]aze-pin-4-amine] |  | > 1000 | 
18 | C[C@@H](Nc1nc(Cl)nc2c1CN(C(=O)[C@]13CCC[C@H]1C3(F)F)CC2)c1cc(N)cc(C(F)(F)F)c1 [Example 217] |  | > 1000 | 
19 | COc1ccc(C(=O)N2CCc3nc(Cl)nc(N[C@H](C)c4cc(N)cc(C(F)(F)F)c4)c3C2)nc1OC [Example 244] | > 1000 |  | 

Second part, led by results:

Row | IC50 [1, 3] [nM] | IC50 [2] [nM] | SMILES | IC50 ([1]; PC-9, 1 h) [nM]
20 | > 1000 | < 1000 | CNCc1nc2c(c(N[C@H](C)c3cc(N)cc(C(F)(F)F)c3)n1)CN(C(=O)N1CCOCC1)C2 [Example 503, N-[(1R)-1-[3-amino-5-(trifluoro-methyl)phenyl]ethyl]-2-[(methylamino)methyl]-6-(morpholine-4-carbonyl)-5H,6H,7H-pyrrolo[3,4-d]-pyrimidin-4-amine] | 
21 | > 1000 | > 1000 | COC(F)(F)c1cccc([C@@H](C)Nc2nc(Cl)nc3c2CN(C(=O)N2CCOCC2)C3)c1 [Example 475, 2-chloro-N-[(1R)-1-{3-[difluoro(methoxy)methyl]phenyl}ethyl]-6-(morpholine-4-carbonyl)-5H,6H,7H-pyrrolo[3,4-d]pyrimidin-4-amine] | 
22 | < 1000 | < 1000 | COC1COCCC1CC(=O)N1Cc2nc(Cl)nc(N[C@H](C)c3cc(N)cc(C(F)(F)F)c3)c2C1 (some centres unmarked) [Example 258] | 
23 | > 1000 | > 1000 | C[C@@H](Nc1nc(Cl)nc2c1CN(C(=O)c1cncc(N3CCOCC3)n1)CC2)c1cc(N)cc(C(F)(F)F)c1 [Example 243] | 
24 | > 1000 | > 1000 | CC(Nc1nc(Cl)nc2c1CN(C(=O)N1CCOCC1)C2)c1cccc(S(C)(=O)=O)c1 (centres unmarked) [Example 497] | 
25 | > 1000 | > 1000 | C[C@@H](Nc1nc(Cl)nc2c1CN(C(=O)N1CCOCC1)C2)c1cncc(C(F)(F)F)c1 [Example 480, 2-chloro-6-(morpholine-4-carbonyl)-N-[(1R)-1-[5-(trifluoromethyl)pyridin-3-yl]ethyl]-5H,6H,7H-pyrrolo[3,4-d]pyrimidin-4-amine] | 
26 | > 1000 | > 1000 | C[C@@H](Nc1nc(Cl)nc2c1CN(C(=O)N1CCOCC1)C2)c1cccc(C(F)(F)F)n1 [Example 473, 2-chloro-6-(morpholine-4-carbonyl)-N-[(1R)-1-[6-(trifluoromethyl)pyridin-2-yl]ethyl]-5H,6H,7H-pyrrolo[3,4-d]pyrimidin-4-amine] | 
27 | > 1000 | < 1000 | C[C@@H](Nc1nc(Cl)nc2c1CN(C(=O)C1CNC1)C2)c1cc(N)cc(C(F)(F)F)c1 [Example 268] | 
28 |  | > 1000 | C[C@@H](Nc1nc(Cl)nc2c1CN(C(=O)N1CCOCC1)C2)c1cc(F)cc(C(F)(F)F)c1 [Example 511, 2-chloro-N-[(1R)-1-[3-fluoro-5-(trifluoromethyl)phenyl]ethyl]-6-(morpholine-4-carbonyl)-5H,6H,7H-pyrrolo[3,4-d]pyrimidin-4-amine] | 
29 | < 1000 | < 1000 | C[C@@H](Nc1nc(Cl)nc2c1CN(C(=O)C13COCC(CO1)C3)C2)c1cc(N)cc(C(F)(F)F)c1 (some centres unmarked) [Example 273] | 
30 | > 1000 | > 1000 | C[C@@H](Nc1nc(Cl)nc2c1CN(C(=O)C1(O)CCOCC1)CC2)c1cc(N)cc(C(F)(F)F)c1 [Example 189] | 
31 | > 1000 |  | C[C@@H](Nc1nc(Cl)nc2c1CN(C(=O)C1CN(C)CCO1)C2)c1cccc(C(F)(F)F)c1 (some centres unmarked) [Example 277] | 
32 |  | > 1000 | C[C@@H](Nc1nc(Cl)nc2c1CN(C(=O)C1(N3CCOCC3)CCC1)CC2)c1cc(N)cc(C(F)(F)F)c1 [Example 207] | 
33 |  | > 1000 | COC1(C(=O)N2CCc3nc(Cl)nc(N[C@H](C)c4cc(N)cc(C(F)(F)F)c4)c3C2)CCOC1 (some centres unmarked) [Example 198] | 
34 |  | > 1000 | Cc1cc([C@@H](C)Nc2nc(Cl)nc3c2CN(C(=O)N2CCOCC2)C3)cc(C(F)(F)F)c1 [Example 515, 2-chloro-N-[(1R)-1-[3-methyl-5-(trifluoromethyl)phenyl]ethyl]-6-(morpholine-4-carbonyl)-5H,6H,7H-pyrrolo[3,4-d]pyrimidin-4-amine] | 
